Data reported in patent US8962596B2 (Array BioPharma Inc., priority 2010, dated 2015).
pIC50: −log10 of the molar value.

How the values were obtained:
Format in all cases: biochemical
Human Tyk2 kinase domain = target: T1, Human Tyk2 kinase domain (Homo sapiens, UniProt P29597); assay: Tyk2 Inhibition Assay (Omnia kinase fluorescence peptide substrate assay); conditions: averaged IC50 ranges; assay of Example A; 10 μM (Km app) or 1 mM ATP, 2 nM Tyk2
T1 construct: comprising amino acids 886 to 1187 with 10 additional histidine residues; 10xHis (histidine tag) (C, cleaved yes); made in house
T1 sequence (P29597 886-1187): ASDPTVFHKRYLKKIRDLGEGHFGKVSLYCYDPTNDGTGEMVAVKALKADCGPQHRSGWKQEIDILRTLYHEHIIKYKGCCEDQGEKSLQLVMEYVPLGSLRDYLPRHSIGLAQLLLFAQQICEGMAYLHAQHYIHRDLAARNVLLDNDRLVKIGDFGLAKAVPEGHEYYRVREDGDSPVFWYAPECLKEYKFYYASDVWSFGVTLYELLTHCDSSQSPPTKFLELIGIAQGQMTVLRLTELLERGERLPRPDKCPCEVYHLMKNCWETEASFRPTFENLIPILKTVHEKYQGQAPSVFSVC
In short: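 2 nM His-tag-cleaved kinase domain (aa 886–1187) with 8 μM Omnia Y12 peptide, 10 μM (Km app) or 1 mM ATP, pH 7.4 HEPES/10 mM MgCl2, 2% DMSO. Fluorescence (ex 360/em 485 nm) every 50 s for 45 min; IC50 from 4-parameter fit of POC, top dose 10 μM.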

JAK1 = target: T2, JAK1 (Homo sapiens, UniProt P23458); assay: JAK1 Inhibition Assay (Omnia kinase fluorescence peptide substrate assay); conditions: averaged IC50 ranges; assay of Example B; 40 μM (Km app) or 1 mM ATP, 15 nM JAK1
T2 construct: purchased Invitrogen Corporation, Carlsbad, Calif; PV4775

JAK2 = target: T3, JAK2 (Homo sapiens, UniProt O60674); assay: JAK2 Inhibition Assay (Omnia kinase fluorescence peptide substrate assay); conditions: averaged IC50 ranges; assay of Example C; 25 μM (Km app) or 1 mM ATP, 5 nM JAK2
T3 construct: purchased Invitrogen Corporation, Carlsbad, Calif; PV4288
In short: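 A 10-point, 3-fold compound series (top 10 μM, 2% DMSO) was tested against 5 nM JAK2 with 10 μM Omnia Y7 substrate and either 1 mM or 25 μM (Km app) ATP. Buffer: pH 7.4 HEPES, MgCl2, Triton X-100, DTT. Sox fluorescence was monitored kinetically for 45 min; IC50 is the concentration giving 50 POC on a 4-parameter fit.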

JAK3 = target: T4, JAK3 (Homo sapiens, UniProt P52333); assay: JAK3 Inhibition Assay (Omnia kinase fluorescence peptide substrate assay); conditions: averaged IC50 ranges; assay of Example D; 10 μM (Km app) or 1 mM ATP, 2.5 nM JAK3
T4 construct: purchased Invitrogen Corporation, Carlsbad, Calif; PV4080
T4 sequence (P52333 1-1124): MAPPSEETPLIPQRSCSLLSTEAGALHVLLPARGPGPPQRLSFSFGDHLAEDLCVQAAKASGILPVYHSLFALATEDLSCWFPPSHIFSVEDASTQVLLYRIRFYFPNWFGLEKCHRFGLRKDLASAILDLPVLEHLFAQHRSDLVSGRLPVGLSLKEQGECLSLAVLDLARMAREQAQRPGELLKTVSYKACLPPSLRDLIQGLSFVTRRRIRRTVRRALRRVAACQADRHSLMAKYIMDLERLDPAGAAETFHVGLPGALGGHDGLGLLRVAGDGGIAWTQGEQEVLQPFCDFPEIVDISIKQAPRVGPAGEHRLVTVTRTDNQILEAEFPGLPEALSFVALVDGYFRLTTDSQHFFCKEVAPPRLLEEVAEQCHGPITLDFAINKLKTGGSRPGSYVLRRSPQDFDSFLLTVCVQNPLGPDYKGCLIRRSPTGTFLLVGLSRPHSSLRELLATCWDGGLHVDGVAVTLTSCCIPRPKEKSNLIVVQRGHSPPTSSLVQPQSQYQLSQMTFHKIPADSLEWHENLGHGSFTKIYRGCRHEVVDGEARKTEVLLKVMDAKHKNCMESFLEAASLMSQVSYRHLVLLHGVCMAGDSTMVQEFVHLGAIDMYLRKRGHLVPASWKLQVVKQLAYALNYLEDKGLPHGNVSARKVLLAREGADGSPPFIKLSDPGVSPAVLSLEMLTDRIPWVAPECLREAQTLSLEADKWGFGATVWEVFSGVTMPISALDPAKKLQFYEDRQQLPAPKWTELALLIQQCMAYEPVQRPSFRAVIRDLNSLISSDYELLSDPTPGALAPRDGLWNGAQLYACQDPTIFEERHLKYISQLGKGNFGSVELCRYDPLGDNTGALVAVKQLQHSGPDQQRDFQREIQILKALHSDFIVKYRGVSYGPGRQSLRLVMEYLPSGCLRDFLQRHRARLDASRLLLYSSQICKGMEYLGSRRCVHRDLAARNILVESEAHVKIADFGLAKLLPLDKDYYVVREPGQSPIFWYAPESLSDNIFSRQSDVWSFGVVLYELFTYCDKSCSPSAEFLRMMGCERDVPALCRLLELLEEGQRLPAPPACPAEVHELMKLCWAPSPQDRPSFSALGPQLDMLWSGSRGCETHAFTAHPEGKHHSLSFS
In short: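 Kinase at 2.5 nM with 10 µM Omnia Y7 peptide and 10 µM (Km app) or 1 mM ATP in 25 mM HEPES pH 7.4, 10 mM MgCl2, 1 mM DTT, 0.01% Triton X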

T2 sequence (P23458 whole entry): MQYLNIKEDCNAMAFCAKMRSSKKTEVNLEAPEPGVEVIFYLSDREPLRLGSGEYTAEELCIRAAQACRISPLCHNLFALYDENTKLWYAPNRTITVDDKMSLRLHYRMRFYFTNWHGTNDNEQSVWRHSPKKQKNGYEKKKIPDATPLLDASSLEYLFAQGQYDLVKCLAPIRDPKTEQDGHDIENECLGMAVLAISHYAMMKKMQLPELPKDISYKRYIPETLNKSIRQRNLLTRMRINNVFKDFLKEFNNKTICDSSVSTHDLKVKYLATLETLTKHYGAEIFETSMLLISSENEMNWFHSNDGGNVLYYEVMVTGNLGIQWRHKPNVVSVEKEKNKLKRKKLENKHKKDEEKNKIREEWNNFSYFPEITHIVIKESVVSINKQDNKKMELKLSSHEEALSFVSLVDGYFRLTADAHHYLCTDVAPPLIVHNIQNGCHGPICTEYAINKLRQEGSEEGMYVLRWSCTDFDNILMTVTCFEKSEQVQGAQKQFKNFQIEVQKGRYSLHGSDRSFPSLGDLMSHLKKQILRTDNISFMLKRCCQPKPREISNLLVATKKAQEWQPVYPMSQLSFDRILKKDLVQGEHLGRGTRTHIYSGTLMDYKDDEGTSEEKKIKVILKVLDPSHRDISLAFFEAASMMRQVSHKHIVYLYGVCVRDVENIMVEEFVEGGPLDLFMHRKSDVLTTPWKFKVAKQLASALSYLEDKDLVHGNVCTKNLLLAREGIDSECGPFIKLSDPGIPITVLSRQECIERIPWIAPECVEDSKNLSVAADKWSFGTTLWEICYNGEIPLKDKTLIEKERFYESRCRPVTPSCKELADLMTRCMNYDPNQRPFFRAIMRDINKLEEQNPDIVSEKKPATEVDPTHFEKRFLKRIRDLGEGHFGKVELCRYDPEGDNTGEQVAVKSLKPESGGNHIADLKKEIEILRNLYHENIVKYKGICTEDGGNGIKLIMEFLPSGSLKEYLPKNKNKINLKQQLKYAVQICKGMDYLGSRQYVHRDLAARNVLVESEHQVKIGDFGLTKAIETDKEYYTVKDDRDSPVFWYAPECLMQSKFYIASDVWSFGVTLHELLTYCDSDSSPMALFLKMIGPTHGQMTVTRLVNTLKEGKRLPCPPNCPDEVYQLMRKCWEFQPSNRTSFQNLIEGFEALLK
T3 sequence (O60674 whole entry): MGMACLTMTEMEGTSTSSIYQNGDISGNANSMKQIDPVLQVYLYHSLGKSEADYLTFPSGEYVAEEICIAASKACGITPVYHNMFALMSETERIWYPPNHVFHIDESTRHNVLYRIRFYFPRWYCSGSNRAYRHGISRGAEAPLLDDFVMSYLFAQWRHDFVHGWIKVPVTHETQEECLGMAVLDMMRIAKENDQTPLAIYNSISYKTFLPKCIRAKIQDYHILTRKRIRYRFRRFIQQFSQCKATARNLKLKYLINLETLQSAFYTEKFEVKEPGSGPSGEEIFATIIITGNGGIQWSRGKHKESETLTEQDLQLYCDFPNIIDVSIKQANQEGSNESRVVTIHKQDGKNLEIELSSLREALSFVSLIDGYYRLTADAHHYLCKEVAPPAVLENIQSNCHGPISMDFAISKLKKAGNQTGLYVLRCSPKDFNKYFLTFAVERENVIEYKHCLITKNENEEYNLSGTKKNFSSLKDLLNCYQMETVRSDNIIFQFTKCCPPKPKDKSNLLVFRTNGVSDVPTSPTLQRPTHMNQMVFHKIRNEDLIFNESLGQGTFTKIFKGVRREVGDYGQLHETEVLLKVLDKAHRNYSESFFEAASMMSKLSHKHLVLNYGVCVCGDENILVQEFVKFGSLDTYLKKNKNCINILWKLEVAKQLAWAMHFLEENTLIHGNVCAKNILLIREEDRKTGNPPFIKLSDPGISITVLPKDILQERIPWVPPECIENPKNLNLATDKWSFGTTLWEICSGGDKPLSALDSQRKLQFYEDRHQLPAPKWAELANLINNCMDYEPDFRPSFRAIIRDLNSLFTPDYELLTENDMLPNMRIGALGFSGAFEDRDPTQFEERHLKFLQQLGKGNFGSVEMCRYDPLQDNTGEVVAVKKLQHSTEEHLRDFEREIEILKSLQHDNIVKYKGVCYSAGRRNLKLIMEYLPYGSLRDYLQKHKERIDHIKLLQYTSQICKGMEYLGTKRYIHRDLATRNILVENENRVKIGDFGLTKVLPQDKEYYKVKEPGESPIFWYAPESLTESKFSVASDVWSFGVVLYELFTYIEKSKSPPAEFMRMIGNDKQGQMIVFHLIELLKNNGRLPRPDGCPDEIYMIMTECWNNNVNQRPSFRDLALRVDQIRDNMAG

Row | pIC50 (Human Tyk2 kinase domain) | pIC50 (JAK1) | pIC50 (JAK2) | pIC50 (JAK3) | SMILES
1 | > 8.00 | 6.00 to 7.00 | 7.00 to 8.00 | 6.00 to 7.00 | Cn1cc(-c2cc3ncc(Cl)n3c(-c3cnn(C4(CC#N)CN(CC(F)(F)F)C4)c3)n2)cn1 [Example 90, 2-(3-(4-(3-Chloro-7-(1-methyl-1H-pyrazol-4-yl)imidazo[1,2-c]pyrimidin-5-yl)-1H-pyrazol-1-yl)-1-(2,2,2-trifluoroethyl)azetidin-3-yl)acetonitrile]
2 | 7.00 to 8.00 | 6.00 to 7.00 | 6.00 to 7.00 | < 6.00 | CC(C)S(=O)(=O)N1CC(CC#N)(n2cc(-c3nc(-c4cnn(C)c4)cc4nccn34)cn2)C1 [Example 91, 2-(1-(Isopropylsulfonyl)-3-(4-(7-(1-methyl-1H-pyrazol-4-yl)imidazo[1,2-c]pyrimidin-5-yl)-1H-pyrazol-1-yl)azetidin-3-yl)acetonitrile]
3 | > 8.00 | 6.00 to 7.00 | 7.00 to 8.00 | < 6.00 | Cn1cc(-c2cc3nccn3c(-c3cnn(C4(CC#N)CN(S(C)(=O)=O)C4)c3)n2)cn1 [Example 92, 2-(3-(4-(7-(1-methyl-1H-pyrazol-4-yl)imidazo[1,2-c]pyrimidin-5-yl)-1H-pyrazol-1-yl)-1-(methylsulfonyl)azetidin-3-yl)acetonitrile]
4 | > 8.00 | 6.00 to 7.00 | 6.00 to 7.00 | < 6.00 | CCCS(=O)(=O)N1CC(CC#N)(n2cc(-c3nc(-c4cnn(C)c4)cc4nccn34)cn2)C1 [Example 93, 2-(3-(4-(7-(1-methyl-1H-pyrazol-4-yl)imidazo[1,2-c]pyrimidin-5-yl)-1H-pyrazol-1-yl)-1-(propylsulfonyl)azetidin-3-yl)acetonitrile]
5 | 7.00 to 8.00 | < 6.00 | 6.00 to 7.00 | < 6.00 | Cn1cc(-c2cc3nccn3c(-c3cnn(C4(CC#N)CN(S(=O)(=O)C5CCCCC5)C4)c3)n2)cn1 [Example 94, 2-(1-(cyclohexylsulfonyl)-3-(4-(7-(1-methyl-1H-pyrazol-4-yl)imidazo[1,2-c]pyrimidin-5-yl)-1H-pyrazol-1-yl)azetidin-3-yl)acctonitrile]
6 | > 8.00 | 7.00 to 8.00 | 7.00 to 8.00 | < 6.00 | Cn1cc(-c2cc3nccn3c(-c3cnn(C4(CC#N)CN(S(=O)(=O)C5CC5)C4)c3)n2)cn1 [Example 95, 2-(1-(cyclopropylsulfonyl)-3-(4-(7-(1-methyl-1H-pyrazol-4-yl)imidazo[1,2-c]pyrimidin-5-yl)-1H-pyrazol-1-yl)azetidin-3-yl)acetonitrile]
7 | > 8.00 | > 8.00 | > 8.00 | 6.00 to 7.00 | Cn1cc(-c2cc3nccn3c(-c3cnn(C4(CC#N)CN(S(=O)(=O)C(F)(F)F)C4)c3)n2)cn1 [Example 96, 2-(3-(4-(7-(1-Methyl-1H-pyrazol-4-yl)imidazo[1,2-c]pyrimidin-5-yl)-1H-pyrazol-1-yl)-1-(trifluoromethylsulfonyl)azetidin-3-yl)acetonitrile]

Continued, compound first:

Row | SMILES | pIC50 (Human Tyk2 kinase domain) | pIC50 (JAK1) | pIC50 (JAK2) | pIC50 (JAK3)
8 | CCCN1CC(CC#N)(n2cc(-c3nc(-c4cnn(C)c4)cc4nccn34)cn2)C1 [Example 81, 2-(3-(4-(7-(1-methyl-1H-pyrazol-4-yl)imidazo[1,2-c]pyrimidin-5-yl)-1H-pyrazol-1-yl)-1-propylazetidin-3-yl)acetonitrile] | 7.00 to 8.00 | 6.00 to 7.00 | 6.00 to 7.00 | < 6.00
9 | CC(C)N1CC(CC#N)(n2cc(-c3nc(-c4cnn(C)c4)cc4nccn34)cn2)C1 [Example 82, 2-(1-isopropyl-3-(4-(7-(1-methyl-1H-pyrazol-4-yl)imidazo[1,2-c]pyrimidin-5-yl)-1H-pyrazol-1-yl)azetidin-3-yl)acetonitrile] | 7.00 to 8.00 | < 6.00 | 6.00 to 7.00 | < 6.00
10 | CN1CC(CC#N)(n2cc(-c3nc(-c4cnn(C)c4)cc4nccn34)cn2)C1 [Example 83, 2-(1-methyl-3-(4-(7-(1-methyl-1H-pyrazol-4-yl)imidazo[1,2-c]pyrimidin-5-yl)-1H-pyrazol-1-yl)azetidin-3-yl)acetonitrile] | 7.00 to 8.00 | < 6.00 | 6.00 to 7.00 | < 6.00
11 | Cn1cc(-c2cc3nccn3c(-c3cnn(C4(CC#N)CN(CC5CC5)C4)c3)n2)cn1 [Example 84, 2-(1-(cyclopropylmethyl)-3-(4-(7-(1-methyl-1H-pyrazol-4-yl)imidazo[1,2-c]pyrimidin-5-yl)-1H-pyrazol-1-yl)azetidin-3-yl)acetonitrile] | > 8.00 | 6.00 to 7.00 | 7.00 to 8.00 | < 6.00
12 | CC(C)CN1CC(CC#N)(n2cc(-c3nc(-c4cnn(C)c4)cc4nccn34)cn2)C1 [Example 85, 2-(1-isobutyl-3-(4-(7-(1-methyl-1H-pyrazol-4-yl)imidazo[1,2-c]pyrimidin-5-yl)-1H-pyrazol-1-yl)azetidin-3-yl)acetonitrile] | 7.00 to 8.00 | 6.00 to 7.00 | 6.00 to 7.00 | < 6.00
13 | Cn1cc(-c2cc3nccn3c(-c3cnn(C4(CC#N)CN(CCC(F)(F)F)C4)c3)n2)cn1 [Example 86, 2-(3-(4-(7-(1-methyl-1H-pyrazol-4-yl)imidazo[1,2-c]pyrimidin-5-yl)-1H-pyrazol-1-yl)-1-(3,3,3-trifluoropropyl)azetidin-3-yl)acetonitrile] | 7.00 to 8.00 | 6.00 to 7.00 | 6.00 to 7.00 | < 6.00
14 | Cn1cc(-c2cc3nccn3c(-c3cnn(C4(CC#N)CN(CC5CCC5)C4)c3)n2)cn1 [Example 87, 2-(1-(cyclobutylmethyl)-3-(4-(7-(1-methyl-1H-pyrazol-4-yl)imidazo[1,2-c]pyrimidin-5-yl)-1H-pyrazol-1-yl)azetidin-3-yl)acetonitrile] | 7.00 to 8.00 | < 6.00 | 6.00 to 7.00 | < 6.00
15 | Cn1cc(-c2cc3nccn3c(-c3cnn(C4(CC#N)CN(Cc5ccccc5)C4)c3)n2)cn1 [Example 88, 2-(1-benzyl-3-(4-(7-(1-methyl-1H-pyrazol-4-yl)imidazo[1,2-c]pyrimidin-5-yl)-1H-pyrazol-1-yl)azetidin-3-yl)acetonitrile] | 6.00 to 7.00 | < 6.00 | 6.00 to 7.00 | < 6.00
16 | Cn1cc(-c2cc3nccn3c(-c3cnn(C4(CC#N)CN(CC5CCOCC5)C4)c3)n2)cn1 [Example 89, 2-(3-(4-(7-(1-methyl-1H-pyrazol-4-yl)imidazo[1,2-c]pyrimidin-5-yl)-1H-pyrazol-1-yl)-1-((tetrahydro-2H-pyran-4-yl)methyl)azetidin-3-yl)acetonitrile] | 6.00 to 7.00 | < 6.00 | < 6.00 | < 6.00
